This passage reports IC50 results from US20240245675A1, “PROTEIN SECRETION INHIBITORS” (Gate Bioscience, Inc., priority 2021, published 2024).

Molecules are shown by their SMILES.

PRP Construct (signal peptide + 10 amino acids of Prion protein fused to HaloTag-HiBit), sequence (P61619 whole entry, looked up, the tested form may be a part): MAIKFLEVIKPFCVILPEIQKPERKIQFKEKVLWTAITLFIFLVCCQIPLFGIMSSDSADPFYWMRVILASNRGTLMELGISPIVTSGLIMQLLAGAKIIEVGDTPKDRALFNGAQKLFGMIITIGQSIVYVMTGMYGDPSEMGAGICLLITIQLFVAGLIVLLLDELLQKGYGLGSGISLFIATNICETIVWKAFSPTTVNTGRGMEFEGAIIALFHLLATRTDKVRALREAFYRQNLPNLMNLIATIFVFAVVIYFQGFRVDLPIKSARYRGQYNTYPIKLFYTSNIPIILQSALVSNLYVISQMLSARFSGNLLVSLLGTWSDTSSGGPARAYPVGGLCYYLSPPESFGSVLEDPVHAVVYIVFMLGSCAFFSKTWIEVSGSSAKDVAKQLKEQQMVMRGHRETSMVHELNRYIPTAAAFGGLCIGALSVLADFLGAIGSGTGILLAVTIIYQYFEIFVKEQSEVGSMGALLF
PDCD1 Construct (signal peptide + 10 amino acids of Programmed Cell Death Receptor 1 fused to HaloTag-HiBit), sequence (P61619 whole entry, the tested form may be a part): as the sequence (P61619 whole entry, looked up, the tested form may be a part) above

One assay addresses PRP Construct (signal peptide + 10 amino acids of Prion protein fused to HaloTag-HiBit) (Homo sapiens, UniProt P61619). Briefly: cell-based.
Details: not given
What is called IC50 is the concentration that gives 50% inhibition. For the compound `Cc1ccc(Nc2nc(C3CCCN3Cc3cnc[nH]3)cs2)nc1` (centres unmarked) [Compound 45], the IC50 is > 30 µM. Consider `CC(C)OC(C)(C)c1csc(NC(=O)Nc2ccccc2Oc2ccccc2)n1` [Compound 18, 1-(4-(2-isopropoxypropan-2-yl)thiazol-2-yl)-3-(2-phenoxyphenyl)urea], for which the IC50 was > 30 µM. Take `Cc1ccc(Nc2nc(C3CCCN3C)cs2)nc1` (centres unmarked) [Compound 46]: the IC50 was > 30 µM. On to `CC(C)(C)c1csc(Nc2ncccc2CCc2ccncc2)n1` [Compound 39], for which the IC50 lay within 10 to 30 µM.

Regarding `O=C(Nc1nc([C@H]2CCCN2c2ccccc2)cs1)OCCc1ccncc1` [Compound 1, 2-(pyridin-4-yl)ethyl (R)-(4-(1-phenylpyrrolidin-2-yl)thiazol-2-yl)carbamate], the IC50 is > 30 µM. Consider `O=C(CCOc1ccncc1)Nc1nc([C@H]2CCCN2c2ccccc2)cs1` [Compound 2, (R)—N-(4-(1-phenylpyrrolidin-2-yl)thiazol-2-yl)-3-(pyridin-4-yloxy)propanamide], for which the half-inhibitory concentration (IC50) was > 30 µM. Same read-out and setting: with `CC(CNc1ccncc1)C(=O)Nc1nc([C@H]2CCCN2c2ccccc2)cs1` (stereo partly drawn) [Compound 7, 2-methyl-N-(4-((R)-1-phenylpyrrolidin-2-yl)thiazol-2-yl)-3-(pyridin-4-ylamino)propanamide] the figure was 10 to 30 µM; with `CC(C)OC(C)(C)c1csc(NC(=O)N(C)CCc2ccncc2)n1` [Compound 20, 3-(4-(2-isopropoxypropan-2-yl)thiazol-2-yl)-1-methyl-1-(2-(pyridin-4-yl)ethyl)urea], > 30 µM; with `O=C(NCc1ccncc1)Nc1nc([C@H]2CCCN2c2ccccc2)cs1` [Compound 11, (R)-1-(4-(1-phenylpyrrolidin-2-yl)thiazol-2-yl)-3-(pyridin-4-ylmethyl)urea], > 30 µM. The same measure, in the same setting: with `c1ccc(N2CCC[C@@H]2c2csc(Nc3ncccc3OCc3ccncc3)n2)cc1` [Compound 8, (R)-4-(1-phenylpyrrolidin-2-yl)-N-(3-(pyridin-4-ylmethoxy)pyridin-2-yl)thiazol-2-amine] the figure was < 5 µM; with `O=C(Nc1ccc(C(=O)c2ccccc2)cc1)Nc1nc([C@H]2CCCN2c2ccccc2)cs1` [Compound 23, (R)-1-(4-benzoylphenyl)-3-(4-(1-phenylpyrrolidin-2-yl)thiazol-2-yl)urea], > 30 µM; with `O=C(c1ccccc1)c1ccc(Nc2nc([C@H]3CCCN3c3ccccc3)cs2)cc1` [Compound 13, (R)-phenyl(4-((4-(1-phenylpyrrolidin-2-yl)thiazol-2-yl)amino)phenyl)methanone], > 30 µM. With `CC(C)OC(C)(C)c1csc(NC(=O)NCc2ccncc2)n1` [Compound 17, 1-(4-(2-isopropoxypropan-2-yl)thiazol-2-yl)-3-(pyridin-4-ylmethyl)urea], the IC50 is > 30 µM. In the case of `CC(C)OC(C)(C)c1csc(NC(=O)N(C)Cc2ccncc2)n1` [Compound 19, 3-(4-(2-isopropoxypropan-2-yl)thiazol-2-yl)-1-methyl-1-(pyridin-4-ylmethyl)urea], the IC50 is > 30 µM. In the case of `CC(C)OC(C)(C)c1csc(NC(=O)[C@H](C)OCc2ccncc2)n1` [Compound 15, (S)—N-(4-(2-isopropoxypropan-2-yl)thiazol-2-yl)-2-(pyridin-4-ylmethoxy)propanamide], the IC50 was > 30 µM.

In the case of `CC(C)OC(C)(C)c1csc(NC(=O)OCCc2ccncc2)n1` [Compound 21, 2-(pyridin-4-yl)ethyl (4-(2-isopropoxypropan-2-yl)thiazol-2-yl)carbamate], the IC50 is > 30 µM. On the same count and under the same terms, with `C[C@@H](OCc1ccncc1)C(=O)Nc1nc([C@H]2CCCN2c2ccccc2)cs1` [Compound 4, (R)—N-(4-((R)-1-phenylpyrrolidin-2-yl)thiazol-2-yl)-2-(pyridin-4-ylmethoxy)propanamide] the figure was 10 to 30 µM; with `CC(C)OC(C)(C)c1csc(NC(=O)[C@@H](C)OCc2ccncc2)n1` [Compound 14, (R)—N-(4-(2-isopropoxypropan-2-yl)thiazol-2-yl)-2-(pyridin-4-ylmethoxy)propanamide], > 30 µM. Still for that read-out and setting: with `C[C@H](OCc1ccncc1)C(=O)Nc1nc([C@H]2CCCN2c2ccccc2)cs1` [Compound 5, (S)—N-(4-((R)-1-phenylpyrrolidin-2-yl)thiazol-2-yl)-2-(pyridin-4-ylmethoxy)propanamide] the figure was 5 to 10 µM. Regarding `CC(C)(C)C1CNC(NC(=O)c2cccn2Cc2ccncc2)=N1` (centres unmarked) [Compound 43], the IC50 was in the range of 5 to 10 µM.

Consider `CN1CCCC1c1csc(Nc2ncccn2)n1` (centres unmarked) [Compound 47], for which the IC50 is > 30 µM. On the same count and under the same terms, with `O=C(Nc1nc(-c2ccccc2)ns1)c1cccn1Cc1ccncc1` [Compound 37] the figure was 5 to 10 µM; with `CC(C)OC(C)(C)c1csc(Nc2ccc(C(=O)c3ccccc3)cc2)n1` [Compound 22, (4-((4-(2-isopropoxypropan-2-yl)thiazol-2-yl)amino)phenyl)(phenyl)methanone], > 30 µM.

As to `CN(CCc1ccncc1)C(=O)Nc1nc([C@H]2CCCN2c2ccccc2)cs1` [Compound 6, (R)-1-methyl-3-(4-(1-phenylpyrrolidin-2-yl)thiazol-2-yl)-1-(2-(pyridin-4-yl)ethyl)urea], the IC50 was > 30 µM. With `CC(C)OC(C)(C)c1csc(Nc2nccc3ccn(Cc4ccncc4)c23)n1` [Compound 25, 4-(2-isopropoxypropan-2-yl)-N-(1-(pyridin-4-ylmethyl)-1H-pyrrolo[2,3-c]pyridin-7-yl)thiazol-2-amine], the IC50 fell in the range of 10 to 30 µM.

Another assay has as its target PDCD1 Construct (signal peptide + 10 amino acids of Programmed Cell Death Receptor 1 fused to HaloTag-HiBit) (Homo sapiens, UniProt P61619). The assay can be described thus: HiBit assay, secretion of SP-HaloTag-HiBit fusion protein, PDCD1 construct. It is filed as cell-based. The note with it: T-REx-293 cells, doxycycline-induced, Nano-Glo HiBiT Extracellular Detection. (In general: The HiBiT peptide binds its large partner to form an active luciferase.)
As for `Cc1cccc(Nc2nc(-c3ccc(-c4cccnc4)cc3)cs2)n1` [Compound 38], the IC50 is > 30 µM. As to `CC(C)OC(C)(C)c1csc(NC(=O)c2ccnn2CCc2ccncc2)n1` [Compound 24, N-(4-(2-isopropoxypropan-2-yl)thiazol-2-yl)-1-(2-(pyridin-4-yl)ethyl)-1H-pyrazole-5-carboxamide], the IC50 is > 30 µM. On to `CC(C)OC(C)(C)c1csc(NC(=O)c2nccn2CCc2ccncc2)n1` [Compound 44], for which the IC50 is > 30 µM. Regarding `c1ccc(N2CCC[C@@H]2c2csc(Nc3ncccc3OCc3ccncc3)n2)cc1` [Compound 8, (R)-4-(1-phenylpyrrolidin-2-yl)-N-(3-(pyridin-4-ylmethoxy)pyridin-2-yl)thiazol-2-amine], the IC50 was 5 to 10 µM. With `CN1CCN(c2nsc(NC(=O)c3cc(F)cn3Cc3ccncc3)n2)CC1` [Compound 48, 4-fluoro-N-(3-(4-methylpiperazin-1-yl)-1,2,4-thiadiazol-5-yl)-1-(pyridin-4-ylmethyl)-1H-pyrrole-2-carboxamide], the IC50 is > 30 µM. Turning to `CC(C)(C)c1nsc(NC(=O)c2cccn2Cc2ccncc2)n1` [Compound 50], the IC50 is < 5 µM. Take `CC(C)(C)C1CNC(NC(=O)c2cccn2Cc2ccncc2)=N1` (centres unmarked) [Compound 43]: the IC50 was < 5 µM. In the case of `O=C(Nc1nc(-c2ccccc2)ns1)c1cccn1Cc1ccncc1` [Compound 37], the IC50 was < 5 µM.

Regarding `O=C(Nc1nc(/C=C/c2ccccc2)ns1)c1cc(F)cn1Cc1ccncc1` [Compound 49, (E)-4-fluoro-1-(pyridin-4-ylmethyl)-N-(3-styryl-1,2,4-thiadiazol-5-yl)-1H-pyrrole-2-carboxamide], the IC50 is < 5 µM. Turning to `CC(C)OC(C)(C)c1csc(Nc2nccc3ccn(Cc4ccncc4)c23)n1` [Compound 25, 4-(2-isopropoxypropan-2-yl)-N-(1-(pyridin-4-ylmethyl)-1H-pyrrolo[2,3-c]pyridin-7-yl)thiazol-2-amine], the IC50 lay within 5 to 10 µM.
